Experimental data reported in paper PMC11049977, “Antenna-Biased Odorant Receptor PstrOR17 Mediates Attraction of Phyllotreta striolata to (S)-Cis-Verbenol and (−)-Verbenone” (International Journal of Molecular Sciences, 2024).

Target: T1, PstrOR17 (Phyllotreta striolata, UniProt A0A9N9TEW2)
T1 construct: gene PHYEVI_LOCUS1381; full-length ORF (1182 bp, 393 residues) from antennal cDNA in pUAST.attb; expressed in Drosophila melanogaster ab3A empty neurons under DmelOR22-Gal4; endogenous fly Orco not mentioned for the assay; with Odorant receptor coreceptor (Drosophila melanogaster, endogenous in the ab3A neuron)
T1 sequence (A0A9N9TEW2 1-393): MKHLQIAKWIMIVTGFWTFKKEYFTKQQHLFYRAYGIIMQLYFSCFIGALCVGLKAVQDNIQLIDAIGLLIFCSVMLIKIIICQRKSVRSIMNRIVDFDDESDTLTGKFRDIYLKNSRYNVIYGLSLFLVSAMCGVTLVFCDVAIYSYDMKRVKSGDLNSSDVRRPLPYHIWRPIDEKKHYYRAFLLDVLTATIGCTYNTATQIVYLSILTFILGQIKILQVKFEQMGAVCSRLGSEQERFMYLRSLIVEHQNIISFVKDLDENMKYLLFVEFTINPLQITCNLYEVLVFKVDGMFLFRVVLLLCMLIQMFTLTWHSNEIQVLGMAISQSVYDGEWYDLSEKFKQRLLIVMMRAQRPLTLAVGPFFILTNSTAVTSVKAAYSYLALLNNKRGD
T1 sequence (Q9VNB5 1-486 partner): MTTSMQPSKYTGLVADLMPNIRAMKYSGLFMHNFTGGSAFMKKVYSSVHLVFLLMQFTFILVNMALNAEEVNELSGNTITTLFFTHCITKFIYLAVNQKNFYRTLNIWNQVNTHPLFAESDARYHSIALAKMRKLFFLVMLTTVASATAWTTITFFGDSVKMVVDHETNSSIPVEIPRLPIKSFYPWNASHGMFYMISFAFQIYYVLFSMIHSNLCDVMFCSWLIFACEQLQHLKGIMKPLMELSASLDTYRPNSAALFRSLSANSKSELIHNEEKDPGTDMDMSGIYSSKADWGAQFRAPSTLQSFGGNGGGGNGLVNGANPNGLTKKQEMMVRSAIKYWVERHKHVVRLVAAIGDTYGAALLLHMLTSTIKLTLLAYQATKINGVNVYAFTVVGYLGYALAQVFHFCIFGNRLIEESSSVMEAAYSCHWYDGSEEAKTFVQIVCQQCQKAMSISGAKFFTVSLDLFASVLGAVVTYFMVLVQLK
Assay: single sensillum recording, Drosophila empty neuron (ab3A)
Assay type: cell-based
Conditions: agonist, odour cartridge 10 μL on filter strip

[1] = 10 μg/μL for profile, dose series 10^-5 to 10 mg/mL

Compound | single sensillum recording, Drosophila empty neuron (ab3A) (10 μg/μL) | single sensillum recording, Drosophila empty neuron (ab3A) [1]
CC1=CCC2CC1C2(C)C (stereo not drawn) [α-pinene] | PstrOR17 also conferred moderate responses to five other odorants: α-pinene | 
CC1=CCC(C(C)C)=CC1 [γ-terpinene] | moderate responses to five other odorants: α-pinene; (−)-β-pinene; γ-terpinene | 
C=C1CC[C@H]2C[C@@H]1C2(C)C [(−)-β-pinene] | moderate responses to five other odorants: α-pinene; (−)-β-pinene | 
CC1=C[C@H](O)[C@H]2C[C@@H]1C2(C)C [(S)-cis-verbenol] |  | PstrOR17 responded to both (−)-verbenone and (S)-cis-verbenol in a dose-dependent manner
CC1=CC(=O)[C@H]2C[C@@H]1C2(C)C [(−)-verbenone] |  | PstrOR17 responded to both (−)-verbenone and (S)-cis-verbenol in a dose-dependent manner
